Measured values as given in the supplement of paper PMC10307832.

Tests used:
Assay in all cases: relative viability (nuclei count vs DMSO), 5 days (fraction); higher = more cells survive
[1] = compound: O=C(C[C@H]1NCCC[C@@H]1O)Cn1cnc2cc(Br)c(Cl)cc2c1=O (racemic) [Halofuginone] + Cc1cc(Nc2cc(N3CCN(C)CC3)nc(Sc3ccc(NC(=O)C4CC4)cc3)n2)n[nH]1 [Tozasertib] (partner 0.1 µM)
How it was run: (§1)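 Dosing by pin tool came one day after lung cancer cell lines were seeded in 1536-well plates, using either one drug or a fixed anchor-drug dose plus five library-drug doses (not always all listed) in √10 steps. After 5 days, nuclei were counted on 4× images. Relative viability is treated-well nuclei count divided by vehicle-well nuclei count, and values are medians of duplicate plates.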

[2] = compound: O=C(C[C@H]1NCCC[C@@H]1O)Cn1cnc2cc(Br)c(Cl)cc2c1=O (racemic) [Halofuginone] + CC(=O)c1c(C)c2cnc(Nc3ccc(N4CCNCC4)cn3)nc2n(C2CCCC2)c1=O [Palbociclib] (partner 0.5 µM)
How it was run: as §1

Halofuginone + Alpelisib = compound: O=C(C[C@H]1NCCC[C@@H]1O)Cn1cnc2cc(Br)c(Cl)cc2c1=O (racemic) [Halofuginone] + Cc1nc(NC(=O)N2CCC[C@H]2C(N)=O)sc1-c1ccnc(C(C)(C)C(F)(F)F)c1 [Alpelisib] (partner 2 µM)
How it was run: as §1

Cediranib + Vorinostat = compound: COc1cc2c(Oc3ccc4[nH]c(C)cc4c3F)ncnc2cc1OCCCN1CCCC1 [Cediranib] + O=C(CCCCCCC(=O)Nc1ccccc1)NO [Vorinostat] (partner 1 µM)
How it was run: as §1

201T
relative viability ([1]; first compound 0.001 µM): 1 | relative viability ([1]; first compound 0.003162 µM): 0.813 | relative viability ([1]; first compound 0.01 µM): 0.995 | relative viability ([1]; first compound 0.03162 µM): 0.779 | relative viability ([1]; first compound 0.1 µM): 0.548 | relative viability ([2]; first compound 0.001 µM): 0.369 | relative viability ([2]; first compound 0.003162 µM): 0.185 | relative viability ([2]; first compound 0.01 µM): 0.381 | relative viability ([2]; first compound 0.03162 µM): 0.367 | relative viability ([2]; first compound 0.1 µM): 0.351 | relative viability (Halofuginone + Alpelisib; first compound 0.001 µM): 1.04 | relative viability (Halofuginone + Alpelisib; first compound 0.003162 µM): 1.01 | relative viability (Halofuginone + Alpelisib; first compound 0.01 µM): 1.01 | relative viability (Halofuginone + Alpelisib; first compound 0.03162 µM): 0.998 | relative viability (Halofuginone + Alpelisib; first compound 0.1 µM): 0.841 | relative viability (Cediranib + Vorinostat; first compound 0.04 µM): 1.08 | relative viability (Cediranib + Vorinostat; first compound 0.1265 µM): 0.631 | relative viability (Cediranib + Vorinostat; first compound 0.4 µM): 0.84 | relative viability (Cediranib + Vorinostat; first compound 1.265 µM): 0.973 | relative viability (Cediranib + Vorinostat; first compound 4 µM): 1.04

A549
relative viability (Halofuginone + Alpelisib; first compound 0.001 µM): 0.919 | relative viability (Halofuginone + Alpelisib; first compound 0.003162 µM): 0.765 | relative viability (Halofuginone + Alpelisib; first compound 0.01 µM): 0.685 | relative viability (Halofuginone + Alpelisib; first compound 0.03162 µM): 0.44 | relative viability (Halofuginone + Alpelisib; first compound 0.1 µM): 0.15

A-427
relative viability ([1]; first compound 0.001 µM): 0.186 | relative viability ([1]; first compound 0.003162 µM): 0.225 | relative viability ([1]; first compound 0.01 µM): 0.224 | relative viability ([1]; first compound 0.03162 µM): 0.198 | relative viability ([1]; first compound 0.1 µM): 0.192 | relative viability ([2]; first compound 0.001 µM): 0.526 | relative viability ([2]; first compound 0.003162 µM): 0.538 | relative viability ([2]; first compound 0.01 µM): 0.534 | relative viability ([2]; first compound 0.03162 µM): 0.49 | relative viability ([2]; first compound 0.1 µM): 0.479 | relative viability (Halofuginone + Alpelisib; first compound 0.001 µM): 1.07 | relative viability (Halofuginone + Alpelisib; first compound 0.003162 µM): 1.14 | relative viability (Halofuginone + Alpelisib; first compound 0.01 µM): 1.05 | relative viability (Halofuginone + Alpelisib; first compound 0.03162 µM): 0.978 | relative viability (Halofuginone + Alpelisib; first compound 0.1 µM): 0.94 | relative viability (Cediranib + Vorinostat; first compound 0.04 µM): 0.846 | relative viability (Cediranib + Vorinostat; first compound 0.4 µM): 0.835 | relative viability (Cediranib + Vorinostat; first compound 1.265 µM): 0.853 | relative viability (Cediranib + Vorinostat; first compound 4 µM): 0.882

ABC-1
relative viability ([1]; first compound 0.001 µM): 0.141 | relative viability ([1]; first compound 0.003162 µM): 0.142 | relative viability ([1]; first compound 0.01 µM): 0.162 | relative viability ([1]; first compound 0.03162 µM): 0.189 | relative viability ([1]; first compound 0.1 µM): 0.158 | relative viability ([2]; first compound 0.001 µM): 0.551 | relative viability ([2]; first compound 0.003162 µM): 0.606 | relative viability ([2]; first compound 0.01 µM): 0.739 | relative viability ([2]; first compound 0.03162 µM): 0.475 | relative viability ([2]; first compound 0.1 µM): 0.61 | relative viability (Halofuginone + Alpelisib; first compound 0.001 µM): 1.2 | relative viability (Halofuginone + Alpelisib; first compound 0.003162 µM): 0.936 | relative viability (Halofuginone + Alpelisib; first compound 0.01 µM): 1 | relative viability (Halofuginone + Alpelisib; first compound 0.03162 µM): 0.947 | relative viability (Halofuginone + Alpelisib; first compound 0.1 µM): 1.03 | relative viability (Cediranib + Vorinostat; first compound 0.04 µM): 1.11 | relative viability (Cediranib + Vorinostat; first compound 0.1265 µM): 0.821 | relative viability (Cediranib + Vorinostat; first compound 0.4 µM): 1.14 | relative viability (Cediranib + Vorinostat; first compound 1.265 µM): 1.13 | relative viability (Cediranib + Vorinostat; first compound 4 µM): 1.24

BEN
relative viability ([1]; first compound 0.001 µM): 0.535 | relative viability ([1]; first compound 0.003162 µM): 0.528 | relative viability ([1]; first compound 0.01 µM): 0.456 | relative viability ([1]; first compound 0.03162 µM): 0.511 | relative viability ([1]; first compound 0.1 µM): 0.482 | relative viability ([2]; first compound 0.001 µM): 0.487 | relative viability ([2]; first compound 0.003162 µM): 0.471 | relative viability ([2]; first compound 0.01 µM): 0.441 | relative viability ([2]; first compound 0.03162 µM): 0.473 | relative viability ([2]; first compound 0.1 µM): 0.385 | relative viability (Halofuginone + Alpelisib; first compound 0.001 µM): 0.974 | relative viability (Halofuginone + Alpelisib; first compound 0.003162 µM): 1.12 | relative viability (Halofuginone + Alpelisib; first compound 0.01 µM): 1.1 | relative viability (Halofuginone + Alpelisib; first compound 0.03162 µM): 0.975 | relative viability (Halofuginone + Alpelisib; first compound 0.1 µM): 0.478 | relative viability (Cediranib + Vorinostat; first compound 0.04 µM): 0.669 | relative viability (Cediranib + Vorinostat; first compound 0.1265 µM): 0.445 | relative viability (Cediranib + Vorinostat; first compound 0.4 µM): 0.592 | relative viability (Cediranib + Vorinostat; first compound 1.265 µM): 0.552 | relative viability (Cediranib + Vorinostat; first compound 4 µM): 0.588

CAL-12T
relative viability ([1]; first compound 0.001 µM): 0.354 | relative viability ([1]; first compound 0.003162 µM): 0.279 | relative viability ([1]; first compound 0.01 µM): 0.352 | relative viability ([1]; first compound 0.03162 µM): 0.305 | relative viability ([1]; first compound 0.1 µM): 0.262 | relative viability ([2]; first compound 0.001 µM): 0.332 | relative viability ([2]; first compound 0.003162 µM): 0.433 | relative viability ([2]; first compound 0.01 µM): 0.406 | relative viability ([2]; first compound 0.03162 µM): 0.392 | relative viability ([2]; first compound 0.1 µM): 0.194 | relative viability (Halofuginone + Alpelisib; first compound 0.001 µM): 1.4 | relative viability (Halofuginone + Alpelisib; first compound 0.003162 µM): 1.16 | relative viability (Halofuginone + Alpelisib; first compound 0.01 µM): 1.03 | relative viability (Halofuginone + Alpelisib; first compound 0.03162 µM): 1.11 | relative viability (Halofuginone + Alpelisib; first compound 0.1 µM): 1.02 | relative viability (Cediranib + Vorinostat; first compound 0.04 µM): 0.942 | relative viability (Cediranib + Vorinostat; first compound 0.1265 µM): 0.808 | relative viability (Cediranib + Vorinostat; first compound 0.4 µM): 0.772 | relative viability (Cediranib + Vorinostat; first compound 1.265 µM): 0.701 | relative viability (Cediranib + Vorinostat; first compound 4 µM): 1.05

COR-L23
relative viability ([1]; first compound 0.001 µM): 0.249 | relative viability ([1]; first compound 0.003162 µM): 0.218 | relative viability ([1]; first compound 0.01 µM): 0.198 | relative viability ([1]; first compound 0.03162 µM): 0.153 | relative viability ([1]; first compound 0.1 µM): 0.106 | relative viability ([2]; first compound 0.001 µM): 0.328 | relative viability ([2]; first compound 0.003162 µM): 0.303 | relative viability ([2]; first compound 0.01 µM): 0.344 | relative viability ([2]; first compound 0.03162 µM): 0.292 | relative viability ([2]; first compound 0.1 µM): 0.139 | relative viability (Halofuginone + Alpelisib; first compound 0.001 µM): 0.808 | relative viability (Halofuginone + Alpelisib; first compound 0.003162 µM): 0.823 | relative viability (Halofuginone + Alpelisib; first compound 0.01 µM): 0.754 | relative viability (Halofuginone + Alpelisib; first compound 0.03162 µM): 0.635 | relative viability (Halofuginone + Alpelisib; first compound 0.1 µM): 0.118 | relative viability (Cediranib + Vorinostat; first compound 0.04 µM): 0.52 | relative viability (Cediranib + Vorinostat; first compound 0.1265 µM): 0.428 | relative viability (Cediranib + Vorinostat; first compound 0.4 µM): 0.412 | relative viability (Cediranib + Vorinostat; first compound 1.265 µM): 0.433 | relative viability (Cediranib + Vorinostat; first compound 4 µM): 0.458

COR-L 105
relative viability ([1]; first compound 0.001 µM): 0.337 | relative viability ([1]; first compound 0.003162 µM): 0.288 | relative viability ([1]; first compound 0.01 µM): 0.385 | relative viability ([1]; first compound 0.03162 µM): 0.329 | relative viability ([1]; first compound 0.1 µM): 0.346 | relative viability ([2]; first compound 0.001 µM): 0.441 | relative viability ([2]; first compound 0.003162 µM): 0.403 | relative viability ([2]; first compound 0.01 µM): 0.396 | relative viability ([2]; first compound 0.03162 µM): 0.392 | relative viability ([2]; first compound 0.1 µM): 0.413 | relative viability (Halofuginone + Alpelisib; first compound 0.001 µM): 1.31 | relative viability (Halofuginone + Alpelisib; first compound 0.003162 µM): 0.934 | relative viability (Halofuginone + Alpelisib; first compound 0.01 µM): 0.857 | relative viability (Halofuginone + Alpelisib; first compound 0.03162 µM): 0.831 | relative viability (Halofuginone + Alpelisib; first compound 0.1 µM): 0.629 | relative viability (Cediranib + Vorinostat; first compound 0.04 µM): 0.921 | relative viability (Cediranib + Vorinostat; first compound 0.1265 µM): 0.847 | relative viability (Cediranib + Vorinostat; first compound 0.4 µM): 0.733 | relative viability (Cediranib + Vorinostat; first compound 1.265 µM): 0.766 | relative viability (Cediranib + Vorinostat; first compound 4 µM): 0.91

Calu-6
relative viability (Halofuginone + Alpelisib; first compound 0.001 µM): 1.16 | relative viability (Halofuginone + Alpelisib; first compound 0.003162 µM): 1.01 | relative viability (Halofuginone + Alpelisib; first compound 0.01 µM): 0.94 | relative viability (Halofuginone + Alpelisib; first compound 0.03162 µM): 0.362 | relative viability (Halofuginone + Alpelisib; first compound 0.1 µM): 0.17

ChaGo-K-1
relative viability ([1]; first compound 0.001 µM): 0.256 | relative viability ([1]; first compound 0.003162 µM): 0.205 | relative viability ([1]; first compound 0.01 µM): 0.261 | relative viability ([1]; first compound 0.03162 µM): 0.222 | relative viability ([1]; first compound 0.1 µM): 0.208 | relative viability ([2]; first compound 0.001 µM): 0.945 | relative viability ([2]; first compound 0.003162 µM): 0.947 | relative viability ([2]; first compound 0.01 µM): 0.963 | relative viability ([2]; first compound 0.03162 µM): 0.95 | relative viability ([2]; first compound 0.1 µM): 0.947 | relative viability (Cediranib + Vorinostat; first compound 0.04 µM): 0.719 | relative viability (Cediranib + Vorinostat; first compound 0.1265 µM): 0.377 | relative viability (Cediranib + Vorinostat; first compound 0.4 µM): 0.719 | relative viability (Cediranib + Vorinostat; first compound 1.265 µM): 0.757 | relative viability (Cediranib + Vorinostat; first compound 4 µM): 0.808
